Reference: patent US8734775B2, “Chemokine derived peptides that bind with chemokine receptor CXCR3 and uses for chronic wound and angiogenesis inhibition treatments” (University of Pittsburgh, priority 2011, dated 2014)

Legend:
Type in all cases: cell-based, human
HMEC-1 cells [1] = experiment: Scratch assay of endothelial cell motility; conditions: 24 hours
Description: To determine whether IP-10dp inhibits endothelial cell motility, a conventional “scratch assay” was performed. ELR-negative chemokines, such as IP-10, inhibit fibroblast and endothelial cell motility. IP-10 has been shown in prior literature to inhibit HMEC-1 cells' motility in the presence of angiogenic growth factors VEGF165 and bFGF. Thus, a scratch assay comparison was conducted to examine whether, and to what extent, IP-10dp could mimic the inhibitory effects of the full length IP-10. HMEC-1 cells were plated at 2.5×10^5 cells/well in 12 well culture plates and grown to 80 to 85% confluence and quiesced in 0.5% dialyzed fetal bovine serum for 24 hours at 37° C. in 5% CO2. The cells were washed one time with PBS and then incubated in 0.5% dialyzed MDCB 131 media for 24 hours at 37° C. in 5% CO2. The cultures were scraped with a rubber policeman making a 1 mm wide denuded area. […] Images were taken at time zero and 24 hours, and the relative distance traveled by the cells into the a cellular area was determined using MetaMorph. The HMEC-1 culture images were analyzed for the ability of the cells to migrate into a denuded area over a 24 hour period in the presence or absence of VEGF165.

HMEC-1 cells [2] = experiment: Tube formation after pre-treatment with CXCR3-neutralizing antibody
Description: To determine if the IP-10dp peptide is acting through the same signaling pathways as IP-10, an experiment was conducted using a CXCR3-neutralizing antibody (also referred to herein as CXCR3 Ab) to assess that antibody's impact upon IP-10dp's ability to block tube formation. HMEC-1 cells were grown, detached and re-suspended in serum-free media and all were pretreated with CXCR3 Ab (0.5 μg/ml) 30 minutes prior to the addition of VEGF (75 ng/ml), IP-10 (300 ng/ml), IP-10dp (10 μM) and/or Immunoglobulin G (or “IgG,” as control). The thus-treated cells (1×10^4 cells/well) were added to 24-well culture plates coated with growth factor reduced Matrigel and incubated for 24 hours, and endothelial tubes were allowed to form as described above. Images were obtained as above. […]
Quantification of the endothelial tubes formed was performed as above, using MetaMorph, with the data being shown in the graphs of FIG. 6B are of N=6 and normalized to no treatment (average±SEM), and with *P<0.05.

[3] = tested on: m-calpain in HMEC-1 cells; experiment: Calpain activity by Boc-LM-CMAC cleavage; conditions: IP-10dp 10 μM, VEGF 75 ng/ml, BAPTA/AM pre-incubation
Excerpt: Prior research has also shown that in endothelial cells, the CXCR3-activation of PKA inhibits motility secondary to inhibitory phosphorylation of m-calpain (also known as […]). VEGF induces calpain activity in endothelial cells, and […] (also known as […]) is activated, at least in part, by ERK phosphorylation on serine 50 and in other cells μ-calpain is activated secondary to a calcium flux. In this experiment, the IP-10dp affect on m-calpain is studied by using the membrane permeable synthetic calpain substrate Boc-LM-CMAC. Since the pre-fluorescent substrate Boc-LM-CMAC can be cleaved by both m- and μ-calpain, this experiment used BAPTA/AM, a membrane permeable calcium chelator, to distinguish between m- and μ-calpain activation in cells as this blocks activation of μ-calpain but not m-calpain.
In order to establish whether the IP-10dp inhibition of motility involves this above-described blockade of calpain activation, 8 well chamber slides were coated with 0.1% gelatin for 24 hours at 4° C. The gelatin was removed and HMEC-1 cells were plated at 12,000 cells/well then incubated in 10% FBS-EBM-EC media for 24 hrs. The media was removed and the cells were further incubated for 12 hrs with 0.5% dialyzed FBS-EBM media. All cell cultures were then incubated with either BAPTA AM ([…]), or Calpain inhibitor I (CI-1, […]) at 37° C. for 30 minutes. […]

[4] = tested on: PKA activity in HMEC-1 cells; experiment: PKA activity assay in endothelial cells; conditions: IP-10dp 10 μM
Description: To further investigate the cAMP activation of PKA, a PKA assay experiment was conducted. As above, HMEC-1 cells were grown in complete growth media then further incubated in 0.5% dialyzed FBS MCDB 131 media for 24 hours. The cells were then stimulated with forskolin ([…]), and/or combinations of VEGF (100 ng/ml), IP-10 (200 ng/ml), and/or IP-10dp (10 μM) for 15, 30 and 60 minutes. The cells were lysed with an ice-cold hypotonic solution (50 mM Tris pH 7.4, 1 mM EDTA, 10 mg/ml aprotinin and 1 mM PMSF). The cells were incubated on ice for 30 minutes then centrifuged to remove the cell membranes. PKA activity was measured using a commercially available cAMP dependent protein kinase kit (Non-Radioactive Detection kit, from Promega Corp., of Madison, Wis.) according to the manufacturer's protocol. Absorbance was read at 570 nm with the solubilization buffer serving as a blank.

For “PESKAIKNLLKAVSKEMSKRSP (IP-10dp; listed as Homo sapiens) [synthetic fragment of IP-10 comprising residues 78-98, the C-terminal α-helical domain]”, the “inhibition of endothelial cell migration, excess over IP-10” value (HMEC-1 cells [1]; IP-10dp 10 μM vs IP-10 200 ng/ml) was 10%, the “inhibition of HMEC-1 cell motility” value (HMEC-1 cells [1]; IP-10dp 10 μM, with and without VEGF (100 ng/ml)) was “inhibited motility” and the “tube formation inhibition after CXCR3 Ab pre-treatment” value (HMEC-1 cells [2]; CXCR3 Ab 0.5 μg/ml 30 minutes before, IP-10 300 ng/ml, IP-10dp 10 μM) was “significantly blocked”. For the same sequence, the “effect on VEGF-driven tube formation when CXCR3 receptor neutralized” value (HMEC-1 cells [2]; CXCR3 Ab 0.5 μg/ml, VEGF 75 ng/ml) was “unable to override the angiogenic signals from VEGF”, the “VEGF mediated m-calpain activity” value [3] was “inhibits VEGF mediated m-calpain activity” and the “fold increase in PKA assay” value [4] was 2-3 fold. For the same sequence, the “PKA activity in comparison to VEGF and untreated cells” value ([4]; 15, 30 and 60 minutes) was “significant increase in PKA activity”.
